Results published in ChEMBL document CHEMBL1201862, “PubChem BioAssay data set” (2004).
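The compound was tested at five concentrations on cells cultured in 96-well plates, with a 48-hour exposure period. The concentration for 50% growth inhibition is given as GI50.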 The source made the active and inactive calls. Rule as the data show it: active = GI50 up to about 1.1 µM and inactive = higher.

Legend:
Assay in all cases: NCI-60 cell line screen, 48 h
[1] = system: OVCAR-8
[2] = system: DLD-1
[3] = system: UO-31
[4] = system: U-251
[5] = system: SF-539
[6] = system: NCI-H460
[7] = system: CCRF-CEM
[8] = system: UACC-62
[9] = system: A498
[10] = system: SF-295
[11] = system: A549
[12] = system: HOP-62
[13] = system: NCI-H522
[14] = system: NCI-H23
[15] = system: SK-MEL-5
[16] = system: HOP-92
[17] = system: SK-OV-3
[18] = system: SW-620
[19] = system: IGROV-1
[20] = system: HCT-116
[21] = system: KM12
[22] = system: K562
[23] = system: NCI-H226
[24] = system: OVCAR-5
[25] = system: SNB-19
[26] = system: COLO 205
[27] = system: LXFL 529
[28] = system: Malme-3M
[29] = system: UACC-257
[30] = system: SF-268
[31] = system: TK-10
[32] = system: SR
[33] = system: HOP-18
[34] = system: SNB-75
[35] = system: SK-MEL-2
[36] = system: HT-29
[37] = system: HCC 2998
[38] = system: OVCAR-3
[39] = system: SK-MEL-28
[40] = system: HL-60
[41] = system: MOLT-4
[42] = system: ACHN
[43] = system: RPMI-8226

Measured: GI50

Cc1nc(N(CCO)CCO)c2sc(=S)n(-c3ccccc3)c2n1
inactive: [1] > 100 µM | [2] > 100 µM | [3] > 100 µM | [4] > 100 µM | [5] > 100 µM | [6] > 100 µM | [7] > 100 µM | [8] > 100 µM | [9] > 100 µM | [10] > 100 µM | [11] > 100 µM | [12] > 100 µM | [13] > 100 µM | [14] > 100 µM | [15] > 100 µM | [16] > 100 µM | [17] > 100 µM | [18] > 100 µM | [19] > 100 µM | [20] > 100 µM | [21] > 100 µM | [22] > 100 µM | [23] > 100 µM | [24] > 100 µM | [25] > 100 µM | [26] > 100 µM | [27] > 100 µM | [28] > 100 µM | [29] > 100 µM | [30] > 100 µM | [31] > 100 µM | [32] > 100 µM | [33] > 100 µM | [34] 10.8 µM | [35] > 100 µM | [36] > 100 µM | [37] > 100 µM | [38] > 100 µM | [39] > 100 µM | [40] > 100 µM | [41] > 100 µM | [42] > 100 µM | [43] > 100 µM
